Measurements taken from patent publication US9145351B2, “Azole derivatives, methods for producing the same, intermediate thereof, agro-horticultural agents” (KUREHA CORPORATION, priority 2009, dated 2015).
Where two headings read alike, the source gives them in different places.

How the values were obtained:
Format in all cases: cell-based
Sclerotinia sclerotiorum = assay: Plate medium fungicidal assay, Sclerotinia rot S.s (Experimental Example 5); conditions: for inhibition at 5 µg/mL / inhibition at 50 µg/mL: Sclerotinia sclerotiorum
Description: (§1) In this Experimental Example, the fungicidal effects of the inventive compounds on various phytopathogenic fungi for plants and hazardous microorganism for industrial materials were examined by the methods described below. Each inventive compound was dissolved in 2 ml of dimethyl sulfoxide. 0.6 ml of this solution was added to 60 nil of a PDA medium (potato dextrose agar medium) at about 60 degrees C., which was mixed thoroughly in a 100-ml conical flask, and poured into a dish, where it was solidified, thereby obtaining a plate medium containing the inventive compound at 50 mg/L and 5 mg/L. On the other hand, a subject microorganism previously cultured on a plate medium was cut out using a cork borer whose diameter was 4 mm, and inoculated to the test compound-containing plate medium described above. […] The growth degree of the microorganism on the test compound-containing plate medium thus observed was compared with the growth degree of the microorganism in the untreated group, and % mycelial growth inhibition was calculated by the following equation. R=100(dc−dt)/dc wherein R=% mycelial extension inhibition, dc=flora diameter in untreated plate, dt=flora diameter in treated plate. The results obtained as described above were evaluated as one of the 5 grades according to the following criteria. […] Sclerotinia rot (Sclerotinia sclerotiorum) S.s

[1] = tested on: Pseudocercoporella herpotrichoides; assay: Plate medium fungicidal assay, wheat eye spot P.h (Experimental Example 5)
Description: as §1, with “Wheat eye spot (Pseudocercoporella herpotrichoides) P.h” for “Sclerotinia rot (Sclerotinia sclerotiorum) S.s”

Rhynchosporium secalis = assay: Plate medium fungicidal assay, barley leaf blotch R.sec (Experimental Example 5); conditions: for inhibition at 5 µg/mL / inhibition at 50 µg/mL: Rhynchosporium secalis
Description: as §1, with “Barley leaf blotch (Rhynchosporium secalis) R.sec” for “Sclerotinia rot (Sclerotinia sclerotiorum) S.s”

Botritis cinerea = assay: Plate medium fungicidal assay, gray mold B.c (Experimental Example 5)
Description: as §1, with “Gray mold (Botritis cinerea) B.c” for “Sclerotinia rot (Sclerotinia sclerotiorum) S.s”

Pyricularia oryzae = assay: microbe, parasite or virus in culture; conditions: for inhibition at 5 µg/mL / inhibition at 50 µg/mL: Pyricularia oryzae
Fusarium graminearum = assay: microbe, parasite or virus in culture; conditions: for inhibition at 5 µg/mL / inhibition at 50 µg/mL: Fusarium graminearum
Alternaria alternata = assay: Plate medium fungicidal assay, Alternaria blotch A.m (Experimental Example 5); conditions: for inhibition at 5 µg/mL / inhibition at 50 µg/mL: Alternaria alternata
Description: as §1, with “Alternaria blotch (Alternaria alternata) A.m” for “Sclerotinia rot (Sclerotinia sclerotiorum) S.s”

[2] = plate medium containing compound at 5 mg/L, read-out: Growth inhibition grade, S.s
[3] = plate medium containing compound at 50 mg/L, read-out: Growth inhibition grade, S.s
[4] = plate medium, 5 mg/L, read-out: growth inhibition grade S.s
[5] = plate medium, 50 mg/L, read-out: growth inhibition grade S.s
[6] = plate medium containing compound at 5 mg/L, read-out: Growth inhibition grade, P.h
[7] = plate medium containing compound at 50 mg/L, read-out: Growth inhibition grade, P.h
[8] = plate medium, 5 mg/L, read-out: growth inhibition grade P.h
[9] = plate medium, 50 mg/L, read-out: growth inhibition grade P.h
[10] = plate medium containing compound at 5 mg/L, read-out: Growth inhibition grade, R.sec
[11] = plate medium containing compound at 50 mg/L, read-out: Growth inhibition grade, R.sec
[12] = plate medium, 5 mg/L, read-out: growth inhibition grade R.sec
[13] = plate medium, 50 mg/L, read-out: growth inhibition grade R.sec
[14] = plate medium containing compound at 5 mg/L, read-out: Growth inhibition grade, B.c
[15] = plate medium containing compound at 50 mg/L, read-out: Growth inhibition grade, B.c
[16] = plate medium, 5 mg/L, read-out: growth inhibition grade B.c
[17] = plate medium, 50 mg/L, read-out: growth inhibition grade B.c
[18] = read-out: Growth inhibition grade, P.o
[19] = read-out: growth inhibition grade P.o
[20] = read-out: Growth inhibition grade, F.g
[21] = read-out: growth inhibition grade F.g
[22] = plate medium containing compound at 5 mg/L, read-out: Growth inhibition grade, A.m
[23] = plate medium containing compound at 50 mg/L, read-out: Growth inhibition grade, A.m
[24] = plate medium, 5 mg/L, read-out: growth inhibition grade A.m
[25] = plate medium, 50 mg/L, read-out: growth inhibition grade A.m
[26] = plate medium containing compound at 5 mg/L
[27] = plate medium containing compound at 50 mg/L

| Structure (SMILES) | inhibition at 5 µg/mL (Sclerotinia sclerotiorum; [2]) | inhibition at 50 µg/mL (Sclerotinia sclerotiorum; [3]) | inhibition at 5 µg/mL (Sclerotinia sclerotiorum; [4]) | inhibition at 50 µg/mL (Sclerotinia sclerotiorum; [5]) | inhibition at 5 µg/mL [1, 6] | inhibition at 50 µg/mL [1, 7] | inhibition at 5 µg/mL [1, 8] | inhibition at 50 µg/mL [1, 9] | inhibition at 5 µg/mL (Rhynchosporium secalis; [10]) | inhibition at 50 µg/mL (Rhynchosporium secalis; [11]) | inhibition at 5 µg/mL (Rhynchosporium secalis; [12]) | inhibition at 50 µg/mL (Rhynchosporium secalis; [13]) | inhibition at 5 µg/mL (Botritis cinerea; [14]) | inhibition at 50 µg/mL (Botritis cinerea; [15]) | inhibition at 5 µg/mL (Pyricularia oryzae; [18]) | inhibition at 50 µg/mL (Pyricularia oryzae; [18]) | inhibition at 5 µg/mL (Fusarium graminearum; [20]) | inhibition at 50 µg/mL (Fusarium graminearum; [20]) | inhibition at 5 µg/mL (Alternaria alternata; [22]) | inhibition at 50 µg/mL (Alternaria alternata; [23]) | also measured |
| --- | --- | --- | --- | --- | --- | --- | --- | --- | --- | --- | --- | --- | --- | --- | --- | --- | --- | --- | --- | --- | --- |
| C[C@]1(CCl)CC[C@@H](Cc2ccccc2)[C@]1(O)Cn1cncn1 (racemic) [Compound I-73, (1RS,2SR,5SR)-2-chloromethyl-5-benzyl-2-methyl-1-(1H-1,2,4-triazol-1-ylmethyl)cyclopentanol] | > 80% | > 80% | > 80% | > 80% | > 80% | > 80% | > 80% | > 80% | > 80% | > 80% | > 80% | > 80% | > 80% | > 80% | > 80% | > 80% | > 80% | > 80% | > 80% | > 80% | inhibition at 5 µg/mL (Botritis cinerea; [16]): > 80%; inhibition at 50 µg/mL (Botritis cinerea; [17]): > 80%; inhibition at 5 µg/mL (Pyricularia oryzae; [19]): > 80%; inhibition at 50 µg/mL (Pyricularia oryzae; [19]): > 80%; inhibition at 5 µg/mL (Fusarium graminearum; [21]): > 80%; inhibition at 50 µg/mL (Fusarium graminearum; [21]): > 80%; inhibition at 5 µg/mL (Alternaria alternata; [24]): > 80%; inhibition at 50 µg/mL (Alternaria alternata; [25]): > 80% |
| C[C@]1(CCl)CC[C@@H](Cc2cccc(Cl)c2)[C@]1(O)Cn1cncn1 (racemic) [Compound I-74, (1RS,2SR,5SR)-5-(3-chlorobenzyl)-2-chloromethyl-2-methyl-1-(1H-1,2,4-triazol-1-ylmethyl)cyclopentanol] | > 80% | > 80% | – | – | > 80% | > 80% | – | – | > 80% | > 80% | – | – | > 80% | > 80% | > 80% | > 80% | > 80% | > 80% | 60 to 80% | > 80% | – |
| C[C@]1(CCl)CC[C@@H](Cc2ccc(F)cc2)[C@]1(O)Cn1cncn1 (racemic) [Compound I-77, (1RS,2SR,5SR)-2-chloromethyl-5-(4-fluorobenzyl)-2-methyl-1-(1H-1,2,4-triazol-1-ylmethyl)cyclopentanol] | > 80% | > 80% | > 80% | > 80% | > 80% | > 80% | > 80% | > 80% | > 80% | > 80% | > 80% | > 80% | > 80% | > 80% | > 80% | > 80% | > 80% | > 80% | > 80% | > 80% | inhibition at 5 µg/mL (Botritis cinerea; [16]): > 80%; inhibition at 50 µg/mL (Botritis cinerea; [17]): > 80%; inhibition at 5 µg/mL (Pyricularia oryzae; [19]): > 80%; inhibition at 50 µg/mL (Pyricularia oryzae; [19]): > 80%; inhibition at 5 µg/mL (Fusarium graminearum; [21]): > 80%; inhibition at 50 µg/mL (Fusarium graminearum; [21]): > 80%; inhibition at 5 µg/mL (Alternaria alternata; [24]): > 80%; inhibition at 50 µg/mL (Alternaria alternata; [25]): > 80% |
| C[C@@]1(CCl)CC[C@@H](Cc2ccc(Cl)cc2)[C@]1(O)Cn1cncn1 (racemic) [Compound I-101] | – | – | – | – | – | – | – | – | – | – | – | – | – | – | – | – | – | – | – | – | Growth inhibition grade, S.s (Sclerotinia sclerotiorum; [26]): 5 (% Mycerial growth inhibition of 80% or higher); Growth inhibition grade, S.s (Sclerotinia sclerotiorum; [27]): 5 (% Mycerial growth inhibition of 80% or higher); Growth inhibition grade, P.h [1, 26]: 5 (% Mycerial growth inhibition of 80% or higher); Growth inhibition grade, P.h [1, 27]: 5 (% Mycerial growth inhibition of 80% or higher); Growth inhibition grade, R.sec (Rhynchosporium secalis; [26]): 5 (% Mycerial growth inhibition of 80% or higher); Growth inhibition grade, R.sec (Rhynchosporium secalis; [27]): 5 (% Mycerial growth inhibition of 80% or higher); Growth inhibition grade, B.c (Botritis cinerea; [26]): 5 (% Mycerial growth inhibition of 80% or higher); Growth inhibition grade, B.c (Botritis cinerea; [27]): 5 (% Mycerial growth inhibition of 80% or higher); Growth inhibition grade, P.o (Pyricularia oryzae; [26]): 5 (% Mycerial growth inhibition of 80% or higher); Growth inhibition grade, P.o (Pyricularia oryzae; [27]): 5 (% Mycerial growth inhibition of 80% or higher); Growth inhibition grade, F.g (Fusarium graminearum; [26]): 5 (% Mycerial growth inhibition of 80% or higher); Growth inhibition grade, F.g (Fusarium graminearum; [27]): 5 (% Mycerial growth inhibition of 80% or higher); Growth inhibition grade, A.m (Alternaria alternata; [26]): 5 (% Mycerial growth inhibition of 80% or higher); Growth inhibition grade, A.m (Alternaria alternata; [27]): 5 (% Mycerial growth inhibition of 80% or higher) |
